Results: publication PMC10113271, “Rational peptide design for inhibition of the KIX–MLL interaction” (Scientific Reports, 2023)

Columns and labels:
KIX [1] = biological target: T1, KIX (Mus musculus, UniProt P45481); experiment: KIX binding by isothermal titration calorimetry (ITC); details: 30 °C
T1 construct: The DNA fragment of KIX (residues 586–672 of mouse CBP); 6xHis-tag with thrombin cleavage site (N); made in house; host or cells: E. coli BL21(DE3)pLysS
Procedure: For the expression of MLL TAD, E. coli BL21(DE3) competent cells were transformed with the plasmid and cultivated at 37 °C in 2 × YT liquid medium supplemented with ampicillin. When an optical density at 600 nm (OD600) of the cell culture reached 0.7–0.8, 1 mM isopropyl β-D-1-thiogalactopyranoside was added to induce protein expression. After 4 h of cultivation, the cells were harvested by centrifugation. The E. coli cell pellet was suspended with buffer HP (50 mM sodium phosphate [pH 7.4], 300 mM NaCl, 10 mM imidazole, and 6 M guanidine hydrochloride). The sonicated lysate was centrifuged at 4 °C, and the supernatant was filtered using a membrane filter and applied to a gravity column (50 mL) containing 5 mL of nickel-nitrilotriacetic acid (Ni–NTA) resin (Qiagen, Hilden, Germany). The column was washed with buffer HP and buffer AP (50 mM sodium phosphate [pH 7.4], 300 mM NaCl, and 10 mM imidazole) to remove impurities. To elute His-tag–GB1–MLL TAD for ITC and SPR measurements, 40 mL of buffer EP (50 mM sodium phosphate [pH 7.4], 300 mM NaCl, and 250 mM imidazole) was added to the column. […] Thus, His-tag–GB1–MLL TAD was used in the ITC measurements, with the exception of the four mutants (I2849L, D2851L, K2855R, and T2857I). To obtain the MLL TAD peptide without His-tag–GB1 for CD measurements, we washed the column, to which the His-tag–GB1–MLL TAD was attached, with buffer TP (50 mM sodium phosphate [pH 7.4] and 300 mM NaCl), added 150 units of thrombin to the column for digestion of the His-tag–GB1, and eluted the MLL TAD peptide with buffer TP. After Ni–NTA column purification, anion exchange chromatography was performed to further purify the aforementioned four mutants without His-tag–GB1 using the AKTAprime plus chromatography system (Cytiva, Marlborough, MA, USA; 10 mM sodium phosphate [pH 6.0] and 0–1 M NaCl). Due to the fact that the CD spectra of the four mutants were unchanged before and after the anion exchange chromatography, we omitted this procedure for other mutants.
Expression and purification of the KIX protein was performed in the same way as MLL, except that E. coli BL21(DE3)pLysS competent cells and 2 × YT liquid medium with ampicillin and chloramphenicol were used. After Ni–NTA column purification, gel filtration chromatography was performed using a Superdex 200 pg column (Cytiva) and the ITC buffer (20 mM Tris–acetate [pH 7.0] and 50 mM NaCl).
ITC measurements were performed using MicroCal iTC200 (Malvern Panalytical Ltd., Malvern, United Kingdom) at 30 °C. Samples were sufficiently dialyzed with the ITC buffer before measurements. The 600 μM MLL solution was titrated into the cell containing 45 µM KIX. The data were analyzed using the Origin 7 software (OriginLab Corp., Northampton, MA, USA; https://www.originlab.com) to obtain the Kd (M), ΔH (kcal/mol), and stoichiometry of binding, N. The ΔG (kcal/mol) and ΔS (kcal/mol/K) were obtained as follows:2 ΔG=-RTln1/Kd 3 ΔS=ΔH-ΔG/T where R is the gas constant, and T is the temperature.

[2] = Helix contents estimated from far-UV CD spectra; assay type: physicochemical; details: 30 μM peptide without His-tag–GB1, 30 °C, pH 7.0, CONTINLL with SDP48 reference set
Procedure: CD spectra were measured using a J-805 spectropolarimeter (JASCO, Tokyo, Japan) from 200 to 250 nm in a quartz cuvette with a 1-mm path length at 30 °C. Protein concentrations were 30 μM. The CD intensity was converted to MRE using the following equation:1 MRE(deg cm^2dmol^-1)=CD(mdeg)/N·c(M)·l(mm) where N is the number of residues, c is the protein concentration, and l is the path length.
The helix contents of the MLL TAD peptide were calculated from the far-UV CD spectra using the CONTINLL program[42] with the reference data set containing soluble and denatured proteins (SDP48) in the CDPro package.

KIX [3] = details: previously reported value for binding between KIX and MLL TAD; cited from earlier work
Text: Previous studies have reported several inhibitors that bind the MLL site of KIX, including isoxazolidine derivatives, which are small molecule compounds that mimic the function of the TADs of transcriptional activators, and natural products such as sekikaic acid and lobaric acid[21],[22].

T1 sequence (P45481 586-672): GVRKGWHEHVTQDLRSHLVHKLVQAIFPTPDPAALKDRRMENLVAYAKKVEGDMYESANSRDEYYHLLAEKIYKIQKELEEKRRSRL

CC[C@H](C)[C@H](NC(=O)[C@H](CC(=O)O)NC(=O)[C@H](CO)NC(=O)[C@@H]1CCCN1C(=O)[C@H](CC(C)C)NC(=O)[C@@H](NC(=O)[C@H](CC(N)=O)NC(=O)CN)[C@@H](C)CC)C(=O)N[C@@H](CCSC)C(=O)N[C@@H](CC(=O)O)C(=O)N[C@@H](Cc1ccccc1)C(=O)N[C@H](C(=O)N[C@@H](CC(C)C)C(=O)N[C@@H](CCCCN)C(=O)N[C@@H](CC(N)=O)C(=O)N[C@H](C(=O)N1CCC[C@H]1C(=O)N[C@@H](CO)C(=O)N[C@@H](CCSC)C(=O)N[C@@H](CCC(N)=O)C(=O)N[C@@H](C)C(=O)N[C@@H](CC(C)C)C(=O)NCC(=O)N[C@@H](CCC(=O)O)C(=O)N[C@@H](CO)C(=O)N1CCC[C@H]1C(=O)N[C@@H](CCC(=O)O)C(=O)N[C@@H](CO)C(=O)N[C@@H](Cc1ccc(O)cc1)C(=O)O)[C@@H](C)O)C(C)C [wild type, reference compound]
N (stoichiometry of binding) (KIX [1]; pH 7.0, mean ± standard error of triplicate or more): 1.02 ± 0.01
− TΔS (KIX [1]; entropy term upon KIX binding, pH 7.0, ΔS=(ΔH-ΔG)/T, mean ± standard error of triplicate or more): 5.2 ± 0.1 kcal/mol
helix contents [2]: ~ 5.7%
Kd (KIX [3]): 2.1 µM
